Data taken from the NIST ThermoML archive (doi:10.1016/j.jct.2018.05.019).

Conditions: 101.33 kPa, Liquid, transient hot wire

CCO [ethanol]
Conditions | thermal conductivity [W/m/K]
276.51 K | 0.1719
280.8 K | 0.1687
284.27 K | 0.1699
290.37 K | 0.1677
293.43 K | 0.1658

CCCC(=O)OC [methyl butanoate]
Conditions | thermal conductivity [W/m/K]
283.34 K | 0.1459
288.3 K | 0.1442
293.39 K | 0.1416
297.41 K | 0.1401
298.44 K | 0.1397
301.3 K | 0.1391
305.42 K | 0.1372
309.31 K | 0.136
313.29 K | 0.1353
318.38 K | 0.1333
323.35 K | 0.1314
328.55 K | 0.1295
333.25 K | 0.128
338.4 K | 0.1261
343.25 K | 0.1249
348.24 K | 0.1233
353.35 K | 0.1215
358.18 K | 0.1207

CCCCCC(=O)OC [methyl hexanoate]
Conditions | thermal conductivity [W/m/K]
263.83 K | 0.1482
268.65 K | 0.1472
273.7 K | 0.1448
278.59 K | 0.1439
283.75 K | 0.142
288.67 K | 0.1405
293.64 K | 0.1395
298.72 K | 0.1376
303.63 K | 0.1367
308.61 K | 0.1344
313.6 K | 0.1336
321.08 K | 0.1315
328.54 K | 0.1301
333.52 K | 0.1284
338.55 K | 0.1269
343.49 K | 0.1259
348.48 K | 0.1243
353.7 K | 0.1231
358.38 K | 0.1219
363.41 K | 0.1205
368.5 K | 0.1191

CCCCCCCCC(=O)OC [methyl nonanoate]
Conditions | thermal conductivity [W/m/K]
278.44 K | 0.1448
283.5 K | 0.1441
288.5 K | 0.1428
293.36 K | 0.1418
298.3 K | 0.141
303.31 K | 0.1393
308.24 K | 0.1387
313.3 K | 0.1371
318.29 K | 0.1365
323.25 K | 0.1347
328.25 K | 0.1337
333.06 K | 0.1327
338.16 K | 0.1313
343.23 K | 0.1299
348.07 K | 0.1289
353.12 K | 0.1277
358.24 K | 0.1263
363.07 K | 0.1256
368.1 K | 0.1242
373.11 K | 0.1227
378.24 K | 0.1213
383.21 K | 0.1207

CCCCCCCC(=O)OC [methyl octanoate]
Conditions | thermal conductivity [W/m/K]
273.56 K | 0.145
278.48 K | 0.1446
283.44 K | 0.1428
288.35 K | 0.1423
293.42 K | 0.1405
298.33 K | 0.1395
303.21 K | 0.1387
308.29 K | 0.1374
313.29 K | 0.1361
318.22 K | 0.1348
323.2 K | 0.1335
328.3 K | 0.132
333.41 K | 0.1304
338.32 K | 0.1294
343.27 K | 0.1285
348.12 K | 0.1275
353.23 K | 0.126
358.28 K | 0.1246
363.09 K | 0.1238
368.27 K | 0.1223
373.24 K | 0.1212
378.21 K | 0.1196
383.17 K | 0.1189
388.44 K | 0.1173
393.54 K | 0.116

CCCCC(=O)OC [methyl pentanoate]
Conditions | thermal conductivity [W/m/K]
285.55 K | 0.143
290.39 K | 0.1405
295.51 K | 0.1385
298.99 K | 0.1373
305.5 K | 0.1356
312.35 K | 0.1336
320.42 K | 0.1313
327.35 K | 0.1295
333.5 K | 0.1272
340.41 K | 0.1246
348.36 K | 0.1229
355.39 K | 0.1212
362.16 K | 0.1194

O [water]
Conditions | thermal conductivity [W/m/K]
293.09 K | 0.6056
299.55 K | 0.613
309.83 K | 0.6313
314.96 K | 0.6399
319.56 K | 0.6399
324.64 K | 0.6492
332.53 K | 0.6555
339.33 K | 0.657
340.41 K | 0.6654
349.41 K | 0.6723
